# Test results as given in patent US20240000814A1, “TREATING ALCOHOL USE DISORDER USING PSILOCYBIN” (New York University, priority 2022, published 2024).
# Values joined by “and” are separate entries in the source; they are usually repeats but may differ in a detail not shown here. Equal values may be shown once.
# Tests used:
# [1] = tested on: AUD patients; test: Double-blind randomized trial of psilocybin-assisted treatment of AUD: drinking outcomes by timeline followback; assay type: in vivo, human; conditions: for % of Heavy drinking days (PHDD), mean: 32-week double-blind follow-up (weeks 5-36) after first dose, oral psilocybin 25 mg/70 kg then 25-40 mg/70 kg or diphenhydramine 50 mg then 50-100 mg at weeks 4 and 8, with psychotherapy; for Abstinence, NNT / Abstinence, OR / No heavy drinking, NNT / No heavy drinking, OR / WHO risk level Decrease 1, NNT / WHO risk level Decrease 1, OR / WHO risk level Decrease 2, NNT / WHO risk level Decrease 2, OR / WHO risk level Decrease 3, NNT / WHO risk level Decrease 3, OR: psilocybin vs diphenhydramine
# Method: Design: In this double-blind trial, participants were offered 12 weeks of manualized psychotherapy and were randomly assigned to receive psilocybin vs. diphenhydramine during two day-long medication sessions at week 4 and 8. Outcomes were assessed over the 32-week double-blind period following the first dose of study medication.
# Interventions: Study medications were psilocybin 25 mg/70 kg vs. diphenhydramine 50 mg (first session) and psilocybin 25-40 mg/70 kg vs. diphenhydramine 50-100 mg (second session). Psychotherapy included motivational enhancement therapy and cognitive-behavioral therapy.
# Qualifying participants were assessed at screening, baseline (week 0), and weeks 4, 5, 8, 9, 12, 24, and 36. They were randomly assigned in a 1:1 ratio to receive either psilocybin or diphenhydramine, administered in two eight-hour sessions at weeks 4 and 8. All participants who completed the double-blind observation period (weeks 5-36) and still met safety criteria were offered an open-label psilocybin session at week 38, including four additional psychotherapy sessions and assessment for an additional 18 weeks. Participants received up to a total of $560 for completing assessments in the course of the trial, but were not reimbursed for attending the therapy and medication sessions.
# All participants were offered a total of 12 psychotherapy sessions from a team of two therapists including a licensed psychiatrist: 4 before the first medication session, 4 between the first and second medication sessions, and 4 in the month following the second medication session. The psychotherapy, described in detail in a separate publication,^41 included motivational interviewing and cognitive behavioral therapy for AUD as well as material designed to help the participants to manage and make use of the psychoactive effects of the study medication.
# Study medication was taken orally in a single opaque capsule of unvarying appearance and weight. Psilocybin doses were weight-based to control for participant body weight, which ranged from 49.0 to 116.1 (mean=78.3, SD=15.6) kg. Doses for the first session were psilocybin 25 mg/70 kg or diphenhydramine 50 mg. Participants received an increased dose in the second session if there were no dose-limiting adverse events and they agreed to the increase. The increased dose of psilocybin was 30 mg/70 kg if the participant's total score on the Pahnke-Richards Mystical Experience Questionnaire (MEQ)^42 was ≥0.6 in the first session (indicating a robust subjective response to the 25 mg/70 kg dose), or 40 mg/70 kg if the MEQ total score in the first session was <0.6. The increased dose of diphenhydramine was 100 mg, regardless of subjective response.
# Study medication was administered at approximately 9 AM, after which participants were required to stay in the session room with the therapists for at least 8 hours (except for bathroom breaks). During the session, participants were encouraged to lie on a couch wearing eyeshades and headphones providing a standardized playlist of music. Medications were available in the session room to treat hypertension, severe anxiety, or psychotic symptoms.
# The pre-specified primary drinking outcome was the percentage of heavy drinking days (PH DD) during […], assessed at weeks 8, 12, 24, and 36 using the timeline followback, a reliable and valid calendar-based method which is the gold standard outcome for AUD clinical trials.^43-47 Secondary outcomes included percent drinking days (PDD), average drinks per day (DPD), and dichotomous outcomes: abstinence, lack of heavy drinking days, and reduction in World Health Organization risk level^48 by one, two, or three levels. Hair or fingernail samples were collected at week 24 and assayed for ethylglucuronide (EtG) concentration to confirm self-reported abstinence. The Short Index of Problems (SIP-2R)^49 was used to assess drinking-related problems at baseline and weeks 12, 24, and 36. […]
# [2] = tested on: AUD patients; test: Safety: blood pressure, heart rate and adverse events in the trial; assay type: in vivo, human
# Method: Blood pressure and heart rate were assessed at 30- to 60-minute intervals during the first 6 hours of each medication session. Adverse events were solicited at each post-screening assessment.
# Blood pressure and heart rate treatment contrasts were based on MMRM with fixed, categorical effects of treatment and assessment, a treatment-by-assessment interaction, and a fixed covariate (value of each outcome prior to drug administration). All adverse events occurring after informed consent were MedDRA-coded and tabulated, and prevalence within treatment groups (proportion of participants affected) was compared using Fisher's exact tests.
# [3] = tested on: alcohol-dependent participants; conditions: psilocybin 21-28 mg/70 kg, open-label; cited from earlier work
# [4] = 32-week double-blind follow-up (weeks 5-36)
# [5] = 32 weeks following the first administration of study medication
# [6] = treatment-emergent, within 48 hours of study drug administration
smiles,measurement,setting,value
"CN(C)CCc1c[nH]c2cccc(OP(=O)(O)O)c12 [Psilocybin, [3-[2-(dirnethylamino)ethyl]-1H-indo1-4-yl] dihydrogen phosphate]","% of Drinking days, between-group Hedges g",[1]; 32-week double-blind follow-up,0.4
same,"% of Drinking days, between-group mean difference (diphenhydramine-psilocybin)",[1]; 32-week double-blind follow-up,13.44%
same,"Drinks per day, between-group Hedges g",[1]; 32-week double-blind follow-up,0.54
same,"Drinks per day, between-group mean difference (diphenhydramine-psilocybin)",[1]; 32-week double-blind follow-up,1.09 Drinks per day
same,"% of Drinking days (PDD), mean",[1]; [4],29.39%
same,"% of Heavy drinking days, between-group mean difference (diphenhydramine-psilocybin)",[1]; [4],13.86%
same,"Drinks per day (DPD), mean",[1]; [4],1.17 Drinks per day
same,"% of Heavy drinking days (PHDD), mean",[1],9.71%
same,"% of Heavy drinking days (PHDD), mean",[1]; listed as psilocybin,9.7%
same,"% of Heavy drinking days, between-group mean difference (diphenhydramine-psilocybin)","[1]; 32-week double-blind follow-up (weeks 5-36), listed as psilocybin",13.86% and 13.9%
same,"% of Heavy drinking days, between-group Hedges g","[1]; 32-week double-blind follow-up, positive = lower mean in psilocybin group",0.52
same,PHDD of psilocybin-treated participants as percent of that in the diphenhydramine-treated group,[1]; 32 weeks of double-blind observation,41%
same,"Abstinence, % of participants",[1]; Weeks 5-36,22.9%
same,"Abstinence, No. of participants",[1]; Weeks 5-36,11
same,"No heavy drinking, % of participants",[1]; Weeks 5-36,33.3%
same,"No heavy drinking, No. of participants",[1]; Weeks 5-36,16
same,"WHO risk level Decrease 1, % of participants",[1]; Weeks 5-36,83.3%
same,"WHO risk level Decrease 2, % of participants",[1]; Weeks 5-36,60.4%
same,"WHO risk level Decrease 2, No. of participants",[1]; Weeks 5-36,29
same,"WHO risk level Decrease 3, % of participants",[1]; Weeks 5-36,29.2%
same,"WHO risk level Decrease 3, No. of participants",[1]; Weeks 5-36,14
same,"Abstinence, NNT",[1]; Weeks 5-36,7.1
same,"Abstinence, OR",[1]; Weeks 5-36,3.05
same,"No heavy drinking, NNT",[1]; Weeks 5-36,4.5
same,"No heavy drinking, OR",[1]; Weeks 5-36,4
same,"WHO risk level Decrease 1, NNT",[1]; Weeks 5-36,8.2
same,"WHO risk level Decrease 1, OR",[1]; Weeks 5-36,2.03
same,"WHO risk level Decrease 2, NNT",[1]; Weeks 5-36,4.9
same,"WHO risk level Decrease 2, OR",[1]; Weeks 5-36,2.29
same,"WHO risk level Decrease 3, NNT",[1]; Weeks 5-36,6.3
same,"WHO risk level Decrease 3, OR",[1]; Weeks 5-36,2.68
same,"WHO risk level Decrease 1, No. of participants","[1]; Weeks 5-36, relative to 12 weeks prior to screening",40
same,"Abstinence, % of participants",[1]; Weeks 33-36,47.9%
same,"Abstinence, No. of participants",[1]; Weeks 33-36,23
same,"No heavy drinking, % of participants",[1]; Weeks 33-36,62.5%
same,"No heavy drinking, No. of participants",[1]; Weeks 33-36,30
same,"WHO risk level Decrease 1, % of participants",[1]; Weeks 33-36,89.6%
same,"WHO risk level Decrease 1, No. of participants",[1]; Weeks 33-36,43
same,"WHO risk level Decrease 2, % of participants",[1]; Weeks 33-36,60.4%
same,"WHO risk level Decrease 2, No. of participants",[1]; Weeks 33-36,29
same,"WHO risk level Decrease 3, % of participants",[1]; Weeks 33-36,37.5%
same,"WHO risk level Decrease 3, No. of participants",[1]; Weeks 33-36,18
same,"Abstinence, NNT",[1]; Weeks 33-36,4.3
same,"Abstinence, OR",[1]; Weeks 33-36,2.84
same,"No heavy drinking, NNT",[1]; Weeks 33-36,4.4
same,"No heavy drinking, OR",[1]; Weeks 33-36,2.5
same,"WHO risk level Decrease 1, NNT",[1]; Weeks 33-36,4
same,"WHO risk level Decrease 1, OR",[1]; Weeks 33-36,4.74
same,"WHO risk level Decrease 2, NNT",[1]; Weeks 33-36,4.9
same,"WHO risk level Decrease 2, OR",[1]; Weeks 33-36,2.29
same,"WHO risk level Decrease 3, NNT",[1]; Weeks 33-36,5.1
same,"WHO risk level Decrease 3, OR",[1]; Weeks 33-36,2.78
same,"Adverse events reported, number",[2]; [5],119
same,Serious adverse events,[2]; [5],no serious adverse events
same,Time by which blood pressure was no longer significantly elevated,[2]; after drug administration,≤ 360 min
same,Time until which heart rate was higher,[2]; after drug administration,approximately 300 minutes
same,Anxiety and nausea during administration sessions,[2]; compared with diphenhydramine,reported more frequently
same,Heart rate relative to diphenhydramine group,[2]; during medication sessions,higher
same,Systolic and diastolic blood pressure relative to diphenhydramine,[2]; during medication sessions,increased
same,Participants reporting passive suicidal ideation during a medication session,"[2]; for 15 minutes, resolved without sequelae",One
same,Persistent disturbances suggestive of psychosis or hallucinogen persisting perception disorder,[2]; in vivo,no persistent disturbances
same,Severity of adverse events associated with administration,[2]; in vivo,mostly mild and self-limiting
same,Participants given diazepam 10 mg by mouth for anxiety,[2]; second medication session,Two
same,"Headaches, participants affected / treated",[2]; [6],21/48
same,"Headaches, percent of participants",[2]; [6],43.8%
same,Tolerability,[3],well tolerated
